The text below walks through data of patent publication US5393779A, “Chemical compounds” (Zeneca Limited, priority 1991, dated 1995).

Each structure is given as a SMILES string.

One test relates to rat adipocytes. Briefly: Rat adipocyte lipolysis test. It is filed as cell-based, rats. Conditions: 1.5 h, rat epididymal adipocytes, 90 minutes, free fatty acids, isoprenaline 3×10^-6 M, read-out: Efficacy (maximal effect on lipolysis as a percentage of the maximal effect of isoprenaline). The protocol:
Epididymal adipose tissue was excised from male rats and adipocytes prepared by digestion with collagenase. Cells were isolated by flotation and washed four times with Krebs Ringer Bicarbonate buffer (KRB), finally washing in KRB containing 2% bovine serum albumin (KRB/BSA). Aliquots of the cell suspension were incubated in the presence of a range of concentrations of the test compound in a total volume of 1 ml KRB/2% BSA containing 0.1 mg/ml ascorbate in an atmosphere of 95%O2,5%CO2. Incubations were also carried out in the presence of a concentration of isoprenaline (3×10^-6 M) known to have a maximal effect on lipolysis. Control incubations were carried out in KRB/2% BSA containing ascorbate. The incubations were terminated after 90 minutes by placing the tubes on ice, and aliquots of infranatant removed for assay of free fatty acids which were measured using a WAKO NEFA-C assay kit (Alpha Laboratories). Lipolytic activity of the compounds was assessed by determining the increase in free fatty acid concentrations caused by the compounds compared to controls. The maximal effects (efficacy) of the compounds were determined and expressed as percentage of the maximal effect of isoprenaline.
Efficacy is the maximal effect of the test compound on lipolysis expressed as a percentage of the maximal effect of isoprenaline.

In test [1] the test system is Rats. Briefly: Test (b): heart rate in rats, D500 dose and selectivity index (SI). The test is classed as in vivo. The protocol: (b) Rats are adapted to a thermoneutral environment (29° C.) for 2 weeks in order to decrease their capacity for BAT mediated non-shivering thermogenesis. During the final 5 days the animals are trained to use an apparatus for measuring heart rate non-invasively via foot-pad electrodes connected to an ECG integrator giving a continuous read-out of heart rate. A test compound is administered sub-cutaneously or orally at the ED50 determined in test (a), and heart rate is determined 15-30 minutes after dosing. The procedure is then repeated in subsequent tests using increasing multiples of the ED50 determined in test (a) until the heart rate (HR) reaches or exceeds 500 beats per minute, or until the dose reaches 100 times the ED50 determined in test (a). The dose necessary to produce a heart rate of 500 beats per minute (D500 dose) is estimated.
The ratio of D500 to ED50 in test (a) can be defined as the selectivity index (SI) and provides a measure of the selectivity of the compound for BAT as opposed to the cardiovascular system.

The test system of test [2] is brown adipose tissue (BAT) mitochondria. Kind of test: Test (a): GDP binding in BAT mitochondria of cold-adapted rats as a measure of thermogenic activation. The test is classed as in vivo. The note with it: BAT removed one hour after dosing; for ED50: Rattus norvegicus, 1 h, oral, relative to isoprenaline 1 mgkg^-1, read-out: oral ED50 (dose producing 50% of the isoprenaline effect on GDP binding). The protocol:
(a) Rats are cold adapted at 4° C. for 5 days to increase their capacity for thermogenesis. They are then transferred to a warm environment of 25° C. for 2 days. On the following day, a test compound is administered sub-cutaneously or orally. Animals are sacrificed one hour later and the interscapular, brown adipose tissue (BAT) pad is removed. BAT mitochondria are prepared by differential centrifugation and GDP binding is determined (Holloway et al., International Journal of Obesity, 1984, 8, 295) as a measure of thermogenic activation. Each test includes a control which is dosed with the solution/suspension vehicle only and a positive control which is dosed with isoprenaline (as its sulphate) at 1 mgkg^-1. Test compounds are routinely dosed at 0.1, 0.3, 1.0, 3.0, and 10 […] and results expressed in terms of the effect on GDP binding produced by the positive control. […] Compounds are considered active in this test if they cause a significant elevation in GDP binding as compared to controls.

The subject of test [3] is Rats. Briefly: Test (c): metabolic rate by closed-circuit oxygen consumption in rats. The test is classed as in vivo. The note with it: 1mgkg^-1 p.o. The protocol: (c) Rats are kept at 23° C. for at least two days, then fasted overnight. On the following day, the basal metabolic rate of the animals is determined using a close-circuit oxygen consumption apparatus of the type described by Arundel et al., 1984, J. Appl. Physiol. Respirat. Environ. Exercise Physiol., 1984, 57 (5) 1591-1593. The rats are then dosed (orally) with test compound at about 1 mgkg^-1 as a solution or suspension in 0,025% w/v Polysorbate 80 (0.5 ml/100 g). Metabolic rate is then determined for at least one hour after dosing. Compounds are considered active in this test if they cause a significant increase in metabolic rate as compared to control animals (Student's t test: p <0.05) dosed only the solution or suspension vehicle.

The next test has as its system Male rats. Briefly: Oral glucose tolerance test. The test is classed as in vivo. The note with it: for Plasma glucose: 5 mg/Kg p.o., mean±S.E.M., six rats. The protocol: Male rats (125-150 g) were fasted for 24 hours. After fasting, a group of six rats was anaesthetised and a cardiac blood sample taken. Other groups of rats were then dosed with the compound of Example 1 (5.0 mg/Kg p.o.) dissolved in an aqueous solution of 0.025% polysorbate. Control rats were dosed with polysorbate solution alone. The volume of solution dosed was 0.5 ml/100 g body weight. 60 minutes subsequent to dosing six control and six treated rats were anaesthetised and cardiac samples taken. The remaining rats were given an oral glucose load (1 g/Kg) dosed as a 20% solution of D-glucose (0.5 ml/100 g). Groups of six rats for each control and treatment were then anaesthetised and bled at 20, 60 and 120 minutes after the glucose load. Plasma glucose and insulin were determined using standard methods.
The results are mean±S.E.M. of observations in six rats in each group. Student's t test was used to test the significance of the difference between control and treated groups.

For another test, the system named is C57BL/KsJ (db/db) mice. Briefly: Effects on blood glucose levels in insulin resistant db/db mice. The test is classed as in vivo. The note with it: 50 mg/kg diet. The protocol: Effects on blood glucose levels in insulin resistant db/db mice C57BL/KsJ (db/db) mice were divided into two groups and allowed free access to control diet or diet containing the compound of Example 1 at a concentration of 50 mg/kg diet. A group of control (+/+) mice was also included in the experiment. After 16 days treatment, blood samples were taken from the mice for determination of blood glucose levels.
Results are mean±S.E.M. of observations in groups of 15 mice. Student's t test was used to test the significance of the difference between control (+/+) and treated (db/db) groups.

Regarding `O=C(O)COc1ccc(OCCNCC(O)COc2ccccc2)cc1` (stereo not drawn) [4-[2-(2-Hydroxy-3-phenoxypropylamino)-ethoxy]phenoxyacetic acid, reference compound], in the test on rat adipocytes, the Emax is 26%.
As to `CC(C)NCC(O)c1ccc(O)c(O)c1` (stereo not drawn) [isoprenaline, reference compound], the “SI (selectivity index, ratio of D500 to ED50 in test (a))” value with Rats [1] (route not stated) is on record as 0.06.
A word on the ED50: it is the dose at which the effect has come halfway, by size or by number of responders. As to `O=C(O)Cc1ccc(OCCNC[C@H](O)c2ccccc2)cc1` [Example 1, (R)-4-[2-(2-Hydroxy-2-phenylethylamino)ethoxy]phenylacetic acid], the “oral ED50 (dose producing 50% of the isoprenaline effect on GDP binding)” value in test [2] (relative to isoprenaline 1 mgkg^-1) came to 0.55 mgkg^-1. Also, the ED50 in test [2] came out at 0.55 mg/kg. Besides, in the test with Rats [1] (oral), the “SI (selectivity index, ratio of D500 to ED50 in test (a))” value is given as greater than 50. Further, the “metabolic rate (oxygen consumption)” value in the test on Rats [3] is recorded as 6.53 ml O2 min^-l (Kg^O.75). Further, the Plasma glucose with Male rats (0 mins relative to oral glucose load) is reported as 3.52 ± 0.07 mM; in the test with Male rats (20 mins after oral glucose load (1 g/Kg)), 5.72 ± 0.24 mM; in the test with Male rats (60 mins after oral glucose load (1 g/Kg)), 5.32 ± 0.24 mM; in the test with Male rats (120 mins after oral glucose load (1 g/Kg)), 5.43 ± 0.31 mM. Also, the “antihyperglycaemic activity (in words)” value with Male rats (5.0 mg/Kg p.o., rats) is on record as “marked antihyperglycaemic activity”. The “effect on blood glucose levels (in words)” value in the test on C57BL/KsJ (db/db) mice (16 days) is on record as “normalises blood glucose levels”. The same molecule yielded a Blood glucose in the test with C57BL/KsJ (db/db) mice (after 16 days treatment, mean±S.E.M., 15 mice) of 5.3 ± 0.46 mM. The Emax in the test on rat adipocytes amounted to 100%.
Regarding `O=C(O)COc1ccc(OCCNCC(O)c2ccccc2)cc1` (stereo not drawn) [4-[2-(2-Hydroxy-2-phenylethylamino)-ethoxy]phenyloxyacetic acid, reference compound], the ED50 in test [2] was greater than 3 mg/kg.
